US8198507B2, “Transgenic or recombinant non-human mammals and their uses in screening psychoactive medicines” (Institut National de la Sante Et de la Recherche Medicale - …, priority 2000, dated 2012)

Experiments:
[1] = system: STOP KO (−/−) mice; assay: Survival of the newborns of treated STOP KO (−/−) mothers; format: in vivo; details: short-term treatment (6 to 8 days before birth), 0.5 mg/kg/day
Experimental: The survival of the newborns is analyzed among the STOP KO (−/−) mice subjected to various treatments. The newborns are considered to be survivors when they are raised until weaning.
(§1) Haloperidol (Haldol^R, JANSSEN-CILAG), chlorpromazine (Largactil^R, RHONE-POULENC) and diazepam (Valium^R, ROCHE) were administered to the mice in the drinking water, at a dose of 0.5 mg/kg/day.

[2] = system: STOP KO (−/−) mice; details: STOP KO (−/−) mothers, short-term treatment (6 to 8 days before birth), 0.5 mg/kg/day in the drinking water, first day post-partum
Experimental: Post-partum females (second gestation) were reared individually from the beginning of their gestation. On the day of giving birth, the young mice were removed and kept in the warm for one hour. The mother was then removed from her usual cage and three newborns were each placed in a corner of this same cage, at a distance from the nest. Next, the mother was returned to her nest and the number of young mice reinstalled in the nest, over a period of 20 minutes, was evaluated.
The effect of anxiolytics (diazepam) and of neuro-leptics (chlorpromazine, haloperidol or clozapine) on the behavioral disorders of the STOP KO (−/−) mice was evaluated in the maternal behavior test as defined in example 3 (“reinstallation in the nest” test).
as §1
The effect of short-term administration (for 6 to 8 days from the 6th day preceding the birth) of anxiolytics (diazepam) and of neuroleptics (chlorpromazine, haloperidol or clozapine) on the behavioral disorders of the STOP KO (−/−) mice was evaluated in the “reinstallation in the nest” test.

CN1C(=O)CN=C(c2ccccc2)c2cc(Cl)ccc21 [diazepam]
survival of the young mice [1]: no survival | reinstallation of the young mice in the nest [2]: slightly improved
